Where two headings read alike, the source gives them in different places.
Columns and labels:
GLUTag cells [1] = experiment: Endpoint cAMP (HTRF) in control-transduced GLUTag cells; assay type: cell-based, murine; set-up: Mean Diff. of cAMP, MDL29,951 vs FSK alone (Tukey): unit not given here; details: for Mean Diff. of cAMP, MDL29,951 vs FSK alone (Tukey): Ctl
Protocol: (§1) GLUTag cells were maintained in Dulbecco’s Modified Eagle Medium (DMEM) supplemented with 10% fetal bovine serum and 1% penicillin–streptomycin in a humidified incubator at 37 °C and 5% CO2. For adenovirus transduction, GLUTag cells were seeded into poly-D-lysine coated 96-well plates or 4-chamber slides. The next day, cells were transduced with adenoviruses (100–1250 viral particles per cell at time of seeding) as indicated. After 24–30 h, adenovirus-containing media was changed to serum-free growth media for overnight serum starvation. The following day, GLUTag cells were used for cAMP or calcium signaling assays, GLP-1 secretion assays, or immunostaining and imaging.
Endpoint cAMP measurements were conducted as follows. GLUTag cells were seeded into poly-D-lysine-coated 96-well plates and transduced with adenovirus as specified above and then tested for cAMP signaling. Medium was removed and cells were washed with cAMP stimulation buffer (Hanks’ balanced salt solution (HBSS), 20 mM HEPES, pH 7.4) and then incubated in cAMP stimulation buffer for 30 min at 37 °C and 5% CO2. Cells were then treated for 30 min with agonist and forskolin in the presence of 500 µM IBMX at 37 °C and 5% CO2. Stimulation buffer was then decanted, and cAMP lysis buffer (50 mM HEPES, 10 mM CaCl2, 0.35% Triton X-100, and 500 µM IBMX) was added and shaken at 700 rpm for 1 h. Lysate was transferred to a 384-well plate, and the cAMP levels were quantified using the Cisbio HTRF cAMP (Gi kit; Revvity, Waltham, MA, USA) according to the manufacturer’s protocol.

GLUTag cells [2] = experiment: Calcium flux (Calcium 6) in control-transduced GLUTag cells; assay type: cell-based, murine; set-up: Mean Diff.: unit not given here; details: for Mean Diff.: Figure 1B, Ctl
Protocol: as §1
(§2) GLUTag cells were seeded into black, clear bottom, poly-D-lysine-coated 96-well plates. Cells were transduced and serum starved as specified above. Growth medium was then replaced with 100 μL/well assay buffer (HBSS, 20 mM HEPES, pH 7.4) and 100 μL/well Calcium 6 loading dye (R8190; Molecular Devices, San Jose, CA, USA). During dye loading, cells were incubated at 37 °C and 5% CO2 for 2 h. MDL29,951 or KCl was added to the wells and fluorescence (485 nm excitation, 525 nm emission, and 515 nm automatic emission cutoff) was measured using a Molecular Devices FlexStation3 (Molecular Devices) at 37 °C. For experiments with PTX, cells were pretreated with 100 ng/mL PTX overnight and 100 ng/mL PTX was included with Calcium 6 loading dye for calcium flux assays. For experiments with YM-254890, cells were pretreated for 30 min at 37 °C.

hGPR17L [3] = target: T1, hGPR17L (Homo sapiens, UniProt Q13304); experiment: Calcium flux (Calcium 6) in GLUTag cells expressing hGPR17L; assay type: cell-based; set-up: host or cells: GLUTag cells (murine enteroendocrine line), adenoviral transduction; Mean Diff. Ctl vs. hGPR17L: unit not given here; details: for Mean Diff.: hGPR17L; for Mean Diff. (Tukey's multiple comparisons test, Figure 4C): hGPR17L-WT
Protocol: as §1, §2

hGPR17L [4] = target: T1, hGPR17L; experiment: GLP-1 secretion from GLUTag cells expressing hGPR17L; assay type: cell-based; set-up: host or cells: GLUTag cells (murine enteroendocrine line), adenoviral transduction
Protocol: as §1
GLUTag cells were seeded into poly-D-lysine-coated 96-well plates and transduced with adenovirus as specified above and then tested for GLP-1 secretion. Medium was removed and cells were washed two times with GLP-1 secretion buffer (138 mM NaCl, 4.5 mM KCl, 4.2 mM NaHCO3, 2.5 mM CaCl2, 1.2 mM MgCl2, 10 mM HEPES, 1 mM glucose, and 0.1% bovine serum albumin, pH 7.4). Cells were stimulated for 2 h with indicated treatments diluted in GLP-1 secretion buffer for a total volume of 200 µL/well at 37 °C and 5% CO2. Plates were then centrifuged at 300× g for 1 min at 4 °C, and 75 µL of the supernatant was removed and frozen at −80 °C until subsequent GLP-1 quantification. Total GLP-1 was quantified using the Meso Scale Discovery Total GLP-1 V-PLEX kit (Rockville, MD, USA; K1503PD) according to manufacturer’s instructions. For PTX treatment conditions, cells were pretreated with 100 ng/mL PTX overnight. For experiments with YM-254890, cells were pretreated for 15 min at 37 °C and 5% CO2.

[5] = log [MDL29,951] (M) -4.5 vs. Vehicle
[6] = log [MDL29,951] (M) -5.0 vs. Vehicle
[7] = log [MDL29,951] (M) -5.5 vs. Vehicle
[8] = log [MDL29,951] (M) -6.0 vs. Vehicle
[9] = log [MDL29,951] (M) -6.4 vs. Vehicle
[10] = log [MDL29,951] (M) -6.9 vs. Vehicle
[11] = log [MDL29,951] (M) -7.4 vs. Vehicle
[12] = log [MDL29,951] (M) -7.9 vs. Vehicle
[13] = log [MDL29,951] (M) -8.3 vs. Vehicle
[14] = log [MDL29,951] (M) -8.8 vs. Vehicle

T1 sequence (Q13304 whole entry): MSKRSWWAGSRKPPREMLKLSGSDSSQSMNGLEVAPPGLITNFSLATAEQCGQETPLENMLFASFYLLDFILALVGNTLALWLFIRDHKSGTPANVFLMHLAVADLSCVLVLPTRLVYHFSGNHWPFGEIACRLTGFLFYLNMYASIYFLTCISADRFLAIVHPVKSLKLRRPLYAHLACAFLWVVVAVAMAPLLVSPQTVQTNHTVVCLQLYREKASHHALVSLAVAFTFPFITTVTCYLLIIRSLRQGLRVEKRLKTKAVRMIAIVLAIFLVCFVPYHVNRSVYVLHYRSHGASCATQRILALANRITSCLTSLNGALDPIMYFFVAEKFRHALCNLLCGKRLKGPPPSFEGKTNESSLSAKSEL

O=C(O)CCc1c(C(=O)O)[nH]c2cc(Cl)cc(Cl)c12 [MDL29,951]
effect on PGE2-stimulated cAMP levels (GLUTag cells [1]; 300 nM PGE2, control transduction condition): no effect
effect on cAMP levels upon PMA treatment (GLUTag cells [1]; 300 nM PMA, control-transduced cells): no effect
Mean Diff. of cAMP, MDL29,951 vs FSK alone (Tukey) (GLUTag cells [1]; log [MDL29,951] (M) -4.0): 0.00975
Mean Diff. of cAMP, MDL29,951 vs FSK alone (Tukey) (GLUTag cells [1]; log [MDL29,951] (M) -4.6): 0.066
Mean Diff. of cAMP, MDL29,951 vs FSK alone (Tukey) (GLUTag cells [1]; log [MDL29,951] (M) -5.2): 0.1185
Mean Diff. of cAMP, MDL29,951 vs FSK alone (Tukey) (GLUTag cells [1]; log [MDL29,951] (M) -5.8): 0.114
Mean Diff. of cAMP, MDL29,951 vs FSK alone (Tukey) (GLUTag cells [1]; log [MDL29,951] (M) -6.4): 0.183
Mean Diff. of cAMP, MDL29,951 vs FSK alone (Tukey) (GLUTag cells [1]; log [MDL29,951] (M) -7.0): 0.173
Mean Diff. of cAMP, MDL29,951 vs FSK alone (Tukey) (GLUTag cells [1]; log [MDL29,951] (M) -7.6): 0.2335
Mean Diff. of cAMP, MDL29,951 vs FSK alone (Tukey) (GLUTag cells [1]; log [MDL29,951] (M) -8.2): 0.2168
Mean Diff. of cAMP, MDL29,951 vs FSK alone (Tukey) (GLUTag cells [1]; log [MDL29,951] (M) -8.8): 0.0115
Mean Diff. of cAMP, MDL29,951 vs FSK alone (Tukey) (GLUTag cells [1]; log [MDL29,951] (M) -9.4): -0.09325
effect on forskolin-stimulated cAMP (GLUTag cells [1]; control-transduced cells, 10 µM forskolin): no effect
peak ΔF/F, calcium flux (GLUTag cells [2]; 30 µM MDL29,951, control-transduced cells): 0.01 ± 0.01
Mean Diff. (GLUTag cells [2]; [5]): -0.01567
Mean Diff. (GLUTag cells [2]; [6]): -0.01433
Mean Diff. (GLUTag cells [2]; [7]): -0.0003333
Mean Diff. (GLUTag cells [2]; [8]): 0.0006667
Mean Diff. (GLUTag cells [2]; [9]): 0.01533
Mean Diff. (GLUTag cells [2]; [10]): 0.002
Mean Diff. (GLUTag cells [2]; [11]): 0.002667
Mean Diff. (GLUTag cells [2]; [12]): 0.004333
Mean Diff. (GLUTag cells [2]; [13]): -0.001667
Mean Diff. (GLUTag cells [2]; [14]): -0.0003333
Mean Diff. Ctl vs. hGPR17L (hGPR17L [3]; Figure 1B, Ctl vs. hGPR17L at log [MDL29,951] (M) -4.5): -0.777
Mean Diff. Ctl vs. hGPR17L (hGPR17L [3]; Figure 1B, Ctl vs. hGPR17L at log [MDL29,951] (M) -5.0): -0.707
Mean Diff. Ctl vs. hGPR17L (hGPR17L [3]; Figure 1B, Ctl vs. hGPR17L at log [MDL29,951] (M) -5.5): -0.62
Mean Diff. Ctl vs. hGPR17L (hGPR17L [3]; Figure 1B, Ctl vs. hGPR17L at log [MDL29,951] (M) -6.0): -0.5407
Mean Diff. Ctl vs. hGPR17L (hGPR17L [3]; Figure 1B, Ctl vs. hGPR17L at log [MDL29,951] (M) -6.4): -0.458
Mean Diff. Ctl vs. hGPR17L (hGPR17L [3]; Figure 1B, Ctl vs. hGPR17L at log [MDL29,951] (M) -6.9): -0.31
Mean Diff. Ctl vs. hGPR17L (hGPR17L [3]; Figure 1B, Ctl vs. hGPR17L at log [MDL29,951] (M) -7.4): -0.206
Mean Diff. Ctl vs. hGPR17L (hGPR17L [3]; Figure 1B, Ctl vs. hGPR17L at log [MDL29,951] (M) -7.9): -0.06033
Mean Diff. Ctl vs. hGPR17L (hGPR17L [3]; Figure 1B, Ctl vs. hGPR17L at log [MDL29,951] (M) -8.3): -0.009667
Mean Diff. Ctl vs. hGPR17L (hGPR17L [3]; Figure 1B, Ctl vs. hGPR17L at log [MDL29,951] (M) -8.8): -0.002
Mean Diff. (hGPR17L [3]; Figure 1B, log [MDL29,951] (M) -4.5 vs. Vehicle): 0.758
Mean Diff. (hGPR17L [3]; Figure 1B, log [MDL29,951] (M) -5.0 vs. Vehicle): 0.6893
Mean Diff. (hGPR17L [3]; Figure 1B, log [MDL29,951] (M) -5.5 vs. Vehicle): 0.6163
Mean Diff. (hGPR17L [3]; Figure 1B, log [MDL29,951] (M) -6.0 vs. Vehicle): 0.538
Mean Diff. (hGPR17L [3]; Figure 1B, log [MDL29,951] (M) -6.4 vs. Vehicle): 0.47
Mean Diff. (hGPR17L [3]; Figure 1B, log [MDL29,951] (M) -6.9 vs. Vehicle): 0.3087
Mean Diff. (hGPR17L [3]; Figure 1B, log [MDL29,951] (M) -7.4 vs. Vehicle): 0.2053
Mean Diff. (hGPR17L [3]; Figure 1B, log [MDL29,951] (M) -7.9 vs. Vehicle): 0.06133
Mean Diff. (hGPR17L [3]; Figure 1B, log [MDL29,951] (M) -8.3 vs. Vehicle): 0.004667
Mean Diff. (hGPR17L [3]; Figure 1B, log [MDL29,951] (M) -8.8 vs. Vehicle): -0.001667
maximum peak ΔF/F, calcium flux (hGPR17L [3]; GLUTag hGPR17L, Figure 1B): 0.80 ± 0.07
pEC50, calcium flux (hGPR17L [3]; GLUTag hGPR17L, Figure 1B): 6.66 ± 0.13
EC50 (hGPR17L [3]; GLUTag hGPR17L, Figure 1B, read-out: potency (EC50), calcium flux): 220 nM
shift in the EC50 of MDL29,951, calcium mobilization (hGPR17L [3]; PTX-treated versus vehicle-treated cells): 3 fold
Mean Diff. (Tukey's multiple comparisons test, Figure 4C) (hGPR17L [3]; [5]): 100.4
Mean Diff. (Tukey's multiple comparisons test, Figure 4C) (hGPR17L [3]; [6]): 91.26
Mean Diff. (Tukey's multiple comparisons test, Figure 4C) (hGPR17L [3]; [7]): 81.52
Mean Diff. (Tukey's multiple comparisons test, Figure 4C) (hGPR17L [3]; [8]): 71.5
Mean Diff. (Tukey's multiple comparisons test, Figure 4C) (hGPR17L [3]; [9]): 61.96
Mean Diff. (Tukey's multiple comparisons test, Figure 4C) (hGPR17L [3]; [10]): 41.28
Mean Diff. (Tukey's multiple comparisons test, Figure 4C) (hGPR17L [3]; [11]): 27.22
Mean Diff. (Tukey's multiple comparisons test, Figure 4C) (hGPR17L [3]; [12]): 8.591
Mean Diff. (Tukey's multiple comparisons test, Figure 4C) (hGPR17L [3]; [13]): 0.737
Mean Diff. (Tukey's multiple comparisons test, Figure 4C) (hGPR17L [3]; [14]): -0.2507
pEC50, calcium mobilization (hGPR17L [3]; vehicle-treated cells, Figure 2C): 6.34 ± 0.06
EC50 (hGPR17L [3]; vehicle-treated cells, Figure 2C, read-out: EC50, calcium mobilization): 440 nM
concentration at which maximum inhibition of F/I-stimulated GLP-1 secretion was observed (hGPR17L [4]): 25 µM
effect on F/I-stimulated GLP-1 secretion (hGPR17L [4]; 100 nM MDL29,951, 10 μM forskolin and 10 μM IBMX): no effect
effect on GLP-1 secretion under basal conditions (hGPR17L [4]; 100 nM or 100 µM MDL29,951, hGPR17L-transduced): no effect
IC50 (hGPR17L [4]; 10 µM forskolin and 10 µM IBMX, no antagonist, read-out: IC50, inhibition of F/I-stimulated GLP-1 secretion): 300 nM
inhibition of F/I-stimulated GLP-1 secretion (hGPR17L [4]; 100 μM MDL29,951): 30 ± 7.7%
effect on PMA-stimulated GLP-1 secretion as compared to vehicle-treated cells (raw data) (hGPR17L [4]; 100 µM MDL29,951, 300 nM PMA): significantly inhibited
pIC50, inhibition of F/I-stimulated GLP-1 secretion (hGPR17L [4]; no antagonist): 6.53 ± 0.31
